Experimental data from ChEMBL document CHEMBL2321790, “1,4,2-Benzo/pyridodithiazine 1,1-dioxides structurally related to the ATP-sensitive potassium channel openers 1,2,4-Benzo/pyridothiadiazine 1,1-dioxides exert a myorelaxant activity linked to a distinct mechanism of action” (J Med Chem, 2013).

Assays:
[1] = species: Rattus norvegicus; assay: Activation of ATP-sensitive potassium channel opening in albino rat pancreatic islets assessed as inhibition of glucose-induced insulin release measured as residual insulin release at 10 uM after 90 mins by radioimmunoassay
[2] = Activation of ATP-sensitive potassium channel opening in albino rat aorta rings assessed as relaxation of KCl-induced contraction of aorta rings; assay type: tissue-based
[3] = system: Aorta; assay: Myorelaxant activity in albino rat aorta rings assessed as relaxation of 30 mM KCl-induced contraction of aorta rings; assay type: functional, tissue-based
[4] = system: Aorta; assay: Myorelaxant activity in albino rat aorta rings assessed as relaxation of KCl-induced contraction of aorta rings in presence of 1 uM KATP channel blocker glibenclamide; assay type: functional, tissue-based
[5] = system: Aorta; assay: Myorelaxant activity in albino rat aorta rings assessed as relaxation of KCl-induced contraction of aorta rings in presence of 10 uM KATP channel blocker glibenclamide; assay type: functional, tissue-based
[6] = system: Aorta; assay: Myorelaxant activity in albino rat aorta rings assessed as relaxation of 80 mM KCl-induced contraction of aorta rings; assay type: functional, tissue-based
[7] = system: Aorta; assay: Myorelaxant activity in albino rat aorta rings assessed as relaxation of KCl-induced contraction of aorta rings; assay type: functional, tissue-based
[8] = Dissociation constant, pKa of the compound in water at 25 degC; assay type: physicochemical

Structure (SMILES)	Activity [1]	EC50 [2]	also measured
CC(NC1=NS(=O)(=O)c2cc(C(F)(F)F)ccc2S1)c1ccccc1 (racemic) [listing 1 of 2 here]	97%	–	–
CC(C)NC1=NS(=O)(=O)c2cc([N+](=O)[O-])ccc2S1	97.7%	176 µM	–
CCC(C)NC1=NS(=O)(=O)c2cc(C(F)(F)F)ccc2S1 (configuration not stated)	110%	38.8 µM	–
COc1ccc(CCN(C)CCCC(C#N)(c2ccc(OC)c(OC)c2)C(C)C)cc1OC (configuration not stated) [VERAPAMIL]	–	–	EC50 [3]: 0.031 µM; EC50 [4]: 0.038 µM; EC50 [5]: 0.35 µM; EC50 [6]: 0.052 µM; Activity [7]: Dose-dependent effect
CC(SC1=NS(=O)(=O)c2cc(Br)ccc2N1)c1ccccc1 (configuration not stated)	91.7%	11.9 µM	–
CC(C)NC1=NS(=O)(=O)c2cc(C#N)ccc2S1	86.2%	152 µM	–
CC(C)NC1=NS(=O)(=O)c2cc(S(C)(=O)=O)ccc2S1	76.3%	> 200 µM	–
O=[N+]([O-])c1ccc2c(c1)S(=O)(=O)N=C(NC1CC1)S2	88.2%	> 200 µM	–
CC1=Nc2ccc(Cl)cc2S(=O)(=O)N1 [DIAZOXIDE]	73.9%	26.2 µM	EC50 [3]: 23.8 µM; EC50 [4]: 154 µM; EC50 ([5]; read-out: EC50): 280 µM; EC50 [6]: > 300 µM
O=[N+]([O-])c1ccc2c(c1)S(=O)(=O)N=C(NC1CCCC1)S2	100%	42.6 µM	–
C[C@H](NC1=NS(=O)(=O)c2cc(C(F)(F)F)ccc2S1)c1ccccc1	–	11.3 µM	–
CCC(C)NC1=NS(=O)(=O)c2cc([N+](=O)[O-])ccc2S1 (configuration not stated)	110%	59.9 µM	–
O=[N+]([O-])c1ccc2c(c1)S(=O)(=O)N=C(Nc1ccccc1)S2	89.5%	> 200 µM	–
CC(SC1=NS(=O)(=O)c2cc(I)ccc2N1)c1ccccc1 (configuration not stated)	81.4%	5.4 µM	–
CC(C)NC1=NS(=O)(=O)c2cnccc2S1	90.6%	190 µM	–
CCNC1=NS(=O)(=O)c2cc([N+](=O)[O-])ccc2S1	100%	> 30 µM	–
CC(C)NC1=NS(=O)(=O)c2cccc(Cl)c2S1	82.4%	> 30 µM	–
CC(NC1=NS(=O)(=O)c2cc(S(C)(=O)=O)ccc2S1)c1ccccc1 (configuration not stated)	83.4%	> 30 µM	–
O=[N+]([O-])c1ccc2c(c1)S(=O)(=O)N=C(NCc1ccccc1)S2	77.7%	> 30 µM	–
CC(SC1=NS(=O)(=O)c2cc(F)ccc2N1)c1ccccc1 (racemic)	–	–	EC50 [3]: 13.2 µM; EC50 [4]: 33.3 µM; EC50 ([5]; read-out: EC50): 36.2 µM; EC50 [6]: 27.5 µM

Structure (SMILES)	Activity [1]	EC50 [2]	also measured
CC(C)NC1=NS(=O)(=O)c2cc(C(F)(F)F)ccc2S1	108%	53.7 µM	–
O=[N+]([O-])c1ccc2c(c1)S(=O)(=O)N=C(NCC1CC1)S2	90.2%	61.1 µM	–
CC(C)NC1=NS(=O)(=O)c2cc(C(=O)O)ccc2S1	68.5%	> 200 µM	–
CC(SC1=NS(=O)(=O)c2cccc(Cl)c2N1)c1ccccc1 (configuration not stated)	79.2%	> 30 µM	–
CC(C)NC1=NS(=O)(=O)c2cc(Cl)ccc2N1	4.8%	31.8 µM	–
CC(C)NC1=NS(=O)(=O)c2c[n+]([O-])ccc2S1	76.7%	> 200 µM	–
CC(SC1=NS(=O)(=O)c2ccc(Cl)cc2N1)c1ccccc1 (configuration not stated)	76.3%	5.7 µM	–
O=S1(=O)N=C(NC2CCCC2)Sc2ccc(C(F)(F)F)cc21	89.5%	48.7 µM	–
O=S1(=O)N=C(Nc2ccccc2)Sc2ccc(C(F)(F)F)cc21	67.8%	13.7 µM	–
CC(SC1=NS(=O)(=O)c2cc(F)ccc2N1)c1ccccc1 (configuration not stated) [listing 1 of 2 here]	95.5%	–	–
CC(NC1=NS(=O)(=O)c2cc(C(F)(F)F)ccc2S1)c1ccccc1 (stereo in doubt; 6t)	97%	–	–
CC(NC1=NS(=O)(=O)c2cc(C(F)(F)F)ccc2S1)c1ccccc1 (racemic) [listing 2 of 2 here]	–	11.6 µM	EC50 [3]: 16.2 µM; EC50 [4]: 17.3 µM; EC50 ([5]; read-out: EC50): 15.5 µM; EC50 [6]: 14.9 µM
CC(C)NC1=NS(=O)(=O)c2cc(Cl)ccc2S1	92.2%	> 100 µM	pKa [8]: 9.76
C[C@@H](NC1=NS(=O)(=O)c2cc(C(F)(F)F)ccc2S1)c1ccccc1	–	> 30 µM	–
CC(C)NC1=NS(=O)(=O)c2ccc(Cl)cc2S1	78.9%	> 30 µM	–
CC(SC1=NS(=O)(=O)c2cc(F)ccc2N1)c1ccccc1 (configuration not stated) [listing 2 of 2 here]	–	15 µM	–
CC(NC1=NS(=O)(=O)c2cc([N+](=O)[O-])ccc2S1)c1ccccc1 (configuration not stated)	91.5%	15.9 µM	–
CC(SC1=NS(=O)(=O)c2cc(Cl)ccc2N1)c1ccccc1 (configuration not stated)	71.1%	5.4 µM	–
CC(C)CNC1=NS(=O)(=O)c2cc([N+](=O)[O-])ccc2S1	110%	69.1 µM	–
CS(=O)(=O)c1ccc2c(c1)S(=O)(=O)N=C(Nc1ccccc1)S2	92.4%	> 30 µM	–
